In US8664257B2, “Oxygen-substituted 3-heteroaroylamino-propionic acid derivatives and their use as pharmaceuticals” (Sanofi, priority 2010, dated 2014):

Target: T1, Recombinant human cathepsin A (Homo sapiens, UniProt P10619)
T1 construct: Recombinant human cathepsin A (residues 29-480, with a C-terminal 10-His tag); 10-His (C); purchased R&D Systems 1049-SE
T1 sequence (P10619 29-312 limits assumed): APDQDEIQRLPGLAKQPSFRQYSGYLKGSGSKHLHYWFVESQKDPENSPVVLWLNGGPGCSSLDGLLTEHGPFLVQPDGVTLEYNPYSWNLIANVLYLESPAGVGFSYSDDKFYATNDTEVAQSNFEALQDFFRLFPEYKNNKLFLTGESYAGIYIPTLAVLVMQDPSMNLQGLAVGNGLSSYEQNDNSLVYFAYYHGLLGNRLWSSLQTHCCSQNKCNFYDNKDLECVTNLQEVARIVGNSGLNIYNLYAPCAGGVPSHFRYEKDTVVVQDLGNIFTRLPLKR
T1 sequence (P10619 327-480 limits assumed): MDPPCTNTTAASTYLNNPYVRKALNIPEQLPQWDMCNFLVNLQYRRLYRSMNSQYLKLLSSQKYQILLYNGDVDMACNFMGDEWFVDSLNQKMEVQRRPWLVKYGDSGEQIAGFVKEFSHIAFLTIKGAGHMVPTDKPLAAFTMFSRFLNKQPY
Assay: Cathepsin A inhibitory activity
Assay type: biochemical
Details: pharmacological test "Cathepsin A inhibitory activity"; IC50 given as class A/B/C; read-out: Activity (2): Cathepsin A inhibitory activity, IC50 class
How it was run: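 Human cathepsin A (res. 29-480, C-His10) pre-activated with cathepsin L (MES pH 6.0, DTT, 15 min, 37 °C; quenched with 10 μM E-64). Enzyme (833 ng/ml) preincubated 15 min RT with compound in MES pH 5.5/DTT, then 2 μM Bodipy FL-bradykinin for 15 min RT. Capillary electrophoresis product/substrate peak areas; IC50 from % inhibition.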

Compound | IC50 [nM]
O=C(O)C[C@H](NC(=O)c1cc(O)n(-c2ccc(F)cc2F)n1)c1cccc(Cl)c1 [Example 184] | 100 to 1000
O=C(O)CC(NC(=O)c1cc(O)n(-c2ccc(F)cc2F)n1)c1cccc(Cl)c1F (stereo not drawn) [Example 192] | 100 to 1000
O=C(O)C[C@@H](NC(=O)c1cc(O)n(-c2ccccc2F)n1)c1ccc(-c2ccc(F)cc2)cc1 [Example 147] | < 100
COc1ccccc1[C@H](CC(=O)O)NC(=O)c1cc(O)n(-c2ccc(F)cc2F)n1 [Example 177] | 100 to 1000
COc1ccc(C(CC(=O)O)NC(=O)c2cc(O)n(-c3ccccc3F)n2)c(Cl)c1 (stereo not drawn) [Example 235] | 100 to 1000
O=C(O)C[C@H](NC(=O)c1cc(O)n(-c2ccccc2F)n1)c1ccc(-c2ccc(F)cc2)cc1 [Example 146] | 1000 to 30000
O=C(O)C[C@H](NC(=O)c1cc(O)n(-c2ccccc2F)n1)c1cccnc1 [Example 140] | 100 to 1000
O=C(O)CC(NC(=O)c1cc(O)n(-c2ccccc2F)n1)c1cccc2c1OCO2 (stereo not drawn) [Example 228] | 100 to 1000
COc1ccc(Cl)cc1C(CC(=O)O)NC(=O)c1cc(O)n(-c2ccccc2Cl)n1 (stereo not drawn) [Example 209] | 100 to 1000

Same assay, conditions: read-out: Activity (2): Cathepsin A inhibitory activity (IC50 class)

Compound | IC50 [nM]
CCOc1cc(C(=O)N[C@@H](CC(=O)O)c2cccc(C)c2)nn1-c1ccccc1Cl [Example 732] | < 100
Cc1ccccc1[C@H](CC(=O)O)NC(=O)c1cc(OCc2ccccc2C#N)n(-c2ccccc2F)n1 [Example 635, (S)-3-{[5-(2-Cyano-benzyloxy)-1-(2-fluoro-phenyl)-1H-pyrazole-3-carbonyl]-amino}-3-o-tolyl-propionic acid] | < 100
O=C(O)CC(NC(=O)c1cc(O)n(-c2ccccc2Cl)n1)c1ccc(-c2ccc(C(F)(F)F)cc2)cc1 (stereo not drawn) [Example 581] | 1000 to 30000
Cc1ccccc1[C@H](CC(=O)O)NC(=O)c1cc(OCC2CC2)n(-c2c(F)cccc2F)n1 [Example 634] | < 100
CCOc1cc(C(=O)N[C@@H](CC(=O)O)c2ccc(C#N)cc2)nn1-c1ccccc1Cl [Example 730] | 100 to 1000
Cc1ccccc1[C@H](CC(=O)O)NC(=O)c1cc(O)n(-c2ccccc2S(C)(=O)=O)n1 [Example 607] | 1000 to 30000
COc1cc(C(=O)N[C@@H](CC(=O)O)c2cccc(C)c2)nn1-c1ccccc1F [Example 670] | < 100
CCOc1cc(C(=O)NC(CC(=O)O)c2ccc(C)cc2C)nn1-c1ccccc1F (stereo not drawn) [Example 708] | < 100
CCOc1cc(C(=O)N[C@@H](CC(=O)O)c2ccccc2)nn1-c1ccccc1F [Example 707] | 100 to 1000
CC(C)(C)[C@@](C)(O)COc1cc(C(=O)N[C@@H](CC(=O)O)c2ccccc2Cl)nn1-c1ccccc1F [Example 790, (S)-3-(2-Chloro-phenyl)-3-{[1-(2-fluoro-phenyl)-5-((R)-2-hydroxy-2,3,3-trimethyl-butoxy)-1H-pyrazole-3-carbonyl]-amino}-propionic acid] | < 100
COc1c(Br)c(C(=O)N[C@@H](CC(=O)O)c2ccccc2C)nn1-c1ccccc1F [Example 594] | < 100
COc1cc(C(=O)N[C@@H](CC(=O)O)c2ccccc2)nn1-c1ccccc1F [Example 665] | < 100
COc1cc(C(=O)N[C@@H](CC(=O)O)c2ccc(Cl)cc2)nn1-c1ccccc1F [Example 671] | < 100
Cc1ccc(C(CC(=O)O)NC(=O)c2cc(O)n(-c3ccccc3)n2)c(F)c1 (stereo not drawn) [Example 564, 3-(2-Fluoro-4-methyl-phenyl)-3-[(5-hydroxy-1-phenyl-1H-pyrazole-3-carbonyl)-amino]-propionic acid] | 100 to 1000
COc1cc(C(=O)N[C@@H](CC(=O)O)c2ccccc2Cl)nn1-c1ccccc1F [Example 676] | < 100
CCCCCCOc1cc(C(=O)N[C@@H](CC(=O)O)c2ccccc2C)nn1-c1ccccc1F [Example 660] | < 100
Cc1ccc([C@H](CC(=O)O)NC(=O)c2cc(OCC3CC3)n(-c3ccccc3F)n2)cc1 [Example 695] | < 100
Cc1ccccc1[C@H](CC(=O)O)NC(=O)c1cc(OCCCF)n(-c2ccccc2F)n1 [Example 641] | < 100
COc1c(C)c(C(=O)NC(CC(=O)O)c2ccccc2C)nn1-c1ccccc1F (stereo not drawn) [Example 605] | 1000 to 30000

Same assay, conditions: read-out: Activity (2): Cathepsin A inhibitory activity, IC50 class

Compound | IC50 [nM]
COc1ccc(Cl)cc1C(CC(=O)O)NC(=O)c1cc(O)n(-c2ccc(F)cc2)n1 (stereo not drawn) [Example 344] | 100 to 1000
O=C(O)C[C@H](NC(=O)c1cc(O)n(-c2ccccc2F)n1)c1ccccc1F [Example 118] | 100 to 1000
O=C(O)C[C@H](NC(=O)c1cc(O)n(-c2ccc(F)cc2F)n1)c1ccccc1F [Example 387] | 100 to 1000
COc1ccc([C@H](CC(=O)O)NC(=O)c2cc(O)n(-c3ccccc3Cl)n2)cc1 [Example 392] | 100 to 1000
O=C(O)CC(NC(=O)c1cc(O)n(-c2ccc(F)cc2F)n1)c1ccc(-c2cccc(F)c2)cc1 (stereo not drawn) [Example 384] | 100 to 1000
COc1ccc(C(CC(=O)O)NC(=O)c2cc(O)n(-c3ccccc3Cl)n2)c(F)c1 (stereo not drawn) [Example 132] | 100 to 1000
CC(C)(C)[C@](C)(O)COc1cc(C(=O)N[C@@H](CC(=O)O)c2ccccc2F)nn1-c1ccccc1F [Example 883, (S)-3-(2-Fluoro-phenyl)-3-{[1-(2-fluoro-phenyl)-5-((S)-2-hydroxy-2,3,3-trimethyl-butoxy)-1H-pyrazole-3-carbonyl]-amino}-propionic acid] | < 100
CC(C)CC(CC(=O)O)NC(=O)c1cc(OCC(C)(O)C(C)C)n(-c2ccccc2F)n1 (stereo not drawn) [Example 814, 3-{[1-(2-Fluoro-phenyl)-5-(2-hydroxy-2,3-dimethyl-butoxy)-1H-pyrazole-3-carbonyl]-amino}-5-methyl-hexanoic acid] | < 100
COc1ccc(C(CC(=O)O)NC(=O)c2cc(O)n(-c3ccc(F)cc3)n2)c(F)c1 (stereo not drawn) [Example 90] | 1000 to 30000
COc1cccc([C@H](CC(=O)O)NC(=O)c2cc(O)n(-c3ccc(Cl)cc3)n2)c1OC [Example 283] | 100 to 1000
Cc1ccccc1[C@H](CC(=O)O)NC(=O)c1cc(O)n(-c2ccccc2)n1 [Example 82] | < 100
CCc1ccc(C(CC(=O)O)NC(=O)c2cc(O)n(-c3ccc(F)cc3)n2)cc1 (stereo not drawn) [Example 363] | 100 to 1000
COc1ccccc1[C@H](CC(=O)O)NC(=O)c1cc(O)n(-c2ccccc2F)n1 [Example 122] | 100 to 1000
Cc1ccccc1[C@H](CC(=O)O)NC(=O)c1cc(O)n(-c2ccccc2Cl)n1 [Example 77] | < 100
Cc1ccc(C)c(C(CC(=O)O)NC(=O)c2cc(O)n(-c3cccc(F)c3)n2)c1 (stereo not drawn) [Example 321] | 100 to 1000
Cc1ccc(C)c(-n2nc(C(=O)NC(CC(=O)O)c3ccc(C#N)cc3)cc2O)c1 (stereo not drawn) [Example 52] | 1000 to 30000
Cc1ccccc1[C@H](CC(=O)O)NC(=O)c1cc(OC[C@@](C)(O)C(C)C)n(-c2ccccc2F)n1 (single isomer, unassigned) [Example 833] | 1000 to 30000
O=C(O)C[C@H](NC(=O)c1cc(O)n(-c2ccccc2)n1)c1ccc(Cl)cc1Cl [Example 95] | 100 to 1000

Same assay, conditions: recombinant human cathepsin A 833 ng/ml, Bodipy FL-labeled bradykinin 2 μM, pH 5.5; read-out: CATH-A IC50

Compound | IC50 [nM]
O=C(O)C[C@H](NC(=O)c1cc(O)n(-c2ccccc2)n1)c1ccccc1Cl [Example 446, (S)-3-(2-Chloro-phenyl)-3-[(5-hydroxy-1-phenyl-1H-pyrazole-3-carbonyl)-amino]-propionic acid] | 120
O=C(O)CC(NC(=O)c1cc(O)n(-c2cccc(Cl)c2)n1)c1cccc(C(F)(F)F)c1F (stereo not drawn) [Example 418, 3-{[1-(3-Chloro-phenyl)-5-hydroxy-1H-pyrazole-3-carbonyl]-amino}-3-(2-fluoro-3-trifluoromethyl-phenyl)-propionic acid] | 5290
Cc1ccc([C@H](CC(=O)O)NC(=O)c2cc(O)n(-c3ccccc3)n2)cc1 [Example 445, (S)-3-[(5-Hydroxy-1-phenyl-1H-pyrazole-3-carbonyl)-amino]-3-p-tolyl-propionic acid] | 130
Cc1ccc(C(CC(=O)O)NC(=O)c2cc(O)n(-c3ccccc3)n2)c(F)c1 (stereo not drawn) [Example 564, 3-(2-Fluoro-4-methyl-phenyl)-3-[(5-hydroxy-1-phenyl-1H-pyrazole-3-carbonyl)-amino]-propionic acid] | 459

Same assay, conditions: recombinant human cathepsin A; read-out: Activity (2): Cathepsin A inhibitory activity, IC50 class

Compound | IC50 [nM]
Cc1ccc(F)cc1C(CC(=O)O)NC(=O)c1cc(O)n(-c2cccc(F)c2)n1 (stereo not drawn) [Example 487] | 100 to 1000
COc1ccc(F)cc1C(CC(=O)O)NC(=O)c1cc(O)n(-c2cccc(F)c2)n1 (stereo not drawn) [Example 520] | 100 to 1000
O=C(O)C[C@H](NC(=O)c1cc(O)n(-c2ccccc2)n1)c1ccccc1Cl [Example 446, (S)-3-(2-Chloro-phenyl)-3-[(5-hydroxy-1-phenyl-1H-pyrazole-3-carbonyl)-amino]-propionic acid] | 100 to 1000
COc1cccc([C@H](CC(=O)O)NC(=O)c2cc(O)n(-c3cccc(F)c3)n2)c1 [Example 429] | 100 to 1000
COc1cc(C(=O)N[C@@H](CC(=O)Nc2cc(C)on2)c2ccccc2C)nn1-c1ccccc1F [Example 932, 1-(2-Fluoro-phenyl)-5-methoxy-1H-pyrazole-3-carboxylic acid [(S)-2-(5-methyl-isoxazol-3-ylcarbamoyl)-1-o-tolyl-ethyl]-amide] | 100 to 1000
O=C(O)CC(NC(=O)c1cc(O)n(-c2cccc(Cl)c2)n1)c1cccc(Cl)c1 (stereo not drawn) [Example 408] | 100 to 1000
O=C(O)CC(NC(=O)c1cc(O)n(-c2cccc(Cl)c2)n1)c1cccc(C(F)(F)F)c1F (stereo not drawn) [Example 418, 3-{[1-(3-Chloro-phenyl)-5-hydroxy-1H-pyrazole-3-carbonyl]-amino}-3-(2-fluoro-3-trifluoromethyl-phenyl)-propionic acid] | 1000 to 30000
Cc1ccc([C@H](CC(=O)O)NC(=O)c2cc(O)n(-c3ccccc3)n2)cc1 [Example 445, (S)-3-[(5-Hydroxy-1-phenyl-1H-pyrazole-3-carbonyl)-amino]-3-p-tolyl-propionic acid] | 100 to 1000
O=C(O)CC(NC(=O)c1cc(O)n(-c2ccccc2F)n1)c1cccc2c1OC(F)(F)O2 (stereo not drawn) [Example 476] | 100 to 1000
O=C(O)C[C@H](NC(=O)c1cc(O)n(-c2cccc(Cl)c2)n1)c1cccc(F)c1 [Example 414] | 1000 to 30000
